According to US20120058133A1, “INHIBITION OF TRNA SYNTHETASES AND THERAPEUTIC APPLICATIONS THEREOF” (President and Fellows of Harvard College, priority 2009, published 2012):
Entries after “also recorded” stand apart in the source; their conditions may differ.

Experiments:
mTOR pathway = mTOR pathway signaling in fibroblasts; format: cell-based, mouse; settings: 100 nM HF
Description: FIG. 25. […] MEFs growing in DME/10% FCS were treated with 100 nM HF or 0.5 μM Rapamycin and analyzed by Western blot for phosphorylation of component of the mTor signaling pathway. Lane 1: 100 nM MAZ1310 1 hr; Lane 2: 100 nM HF 8 hr; Lane 3: 100 nM HF 4 hr; Lane 4: 100 nM HF 2 hr; Lane 5: 100 nM HF 1 hr; Lane 6: 0.5 μM Rapamycin 1 hr.

prolyl tRNA synthetase = target: T1, prolyl tRNA synthetase (Oryctolagus cuniculus, UniProt G1T2I4); experiment: tRNA charging in RRL (14C Pro or 35S Met incorporation into tRNA); format: biochemical, rabbit
T1 construct: from tissue; host or cells: rabbit reticulocyte lysate (RRL)
T1 sequence (G1T2I4 1-1447): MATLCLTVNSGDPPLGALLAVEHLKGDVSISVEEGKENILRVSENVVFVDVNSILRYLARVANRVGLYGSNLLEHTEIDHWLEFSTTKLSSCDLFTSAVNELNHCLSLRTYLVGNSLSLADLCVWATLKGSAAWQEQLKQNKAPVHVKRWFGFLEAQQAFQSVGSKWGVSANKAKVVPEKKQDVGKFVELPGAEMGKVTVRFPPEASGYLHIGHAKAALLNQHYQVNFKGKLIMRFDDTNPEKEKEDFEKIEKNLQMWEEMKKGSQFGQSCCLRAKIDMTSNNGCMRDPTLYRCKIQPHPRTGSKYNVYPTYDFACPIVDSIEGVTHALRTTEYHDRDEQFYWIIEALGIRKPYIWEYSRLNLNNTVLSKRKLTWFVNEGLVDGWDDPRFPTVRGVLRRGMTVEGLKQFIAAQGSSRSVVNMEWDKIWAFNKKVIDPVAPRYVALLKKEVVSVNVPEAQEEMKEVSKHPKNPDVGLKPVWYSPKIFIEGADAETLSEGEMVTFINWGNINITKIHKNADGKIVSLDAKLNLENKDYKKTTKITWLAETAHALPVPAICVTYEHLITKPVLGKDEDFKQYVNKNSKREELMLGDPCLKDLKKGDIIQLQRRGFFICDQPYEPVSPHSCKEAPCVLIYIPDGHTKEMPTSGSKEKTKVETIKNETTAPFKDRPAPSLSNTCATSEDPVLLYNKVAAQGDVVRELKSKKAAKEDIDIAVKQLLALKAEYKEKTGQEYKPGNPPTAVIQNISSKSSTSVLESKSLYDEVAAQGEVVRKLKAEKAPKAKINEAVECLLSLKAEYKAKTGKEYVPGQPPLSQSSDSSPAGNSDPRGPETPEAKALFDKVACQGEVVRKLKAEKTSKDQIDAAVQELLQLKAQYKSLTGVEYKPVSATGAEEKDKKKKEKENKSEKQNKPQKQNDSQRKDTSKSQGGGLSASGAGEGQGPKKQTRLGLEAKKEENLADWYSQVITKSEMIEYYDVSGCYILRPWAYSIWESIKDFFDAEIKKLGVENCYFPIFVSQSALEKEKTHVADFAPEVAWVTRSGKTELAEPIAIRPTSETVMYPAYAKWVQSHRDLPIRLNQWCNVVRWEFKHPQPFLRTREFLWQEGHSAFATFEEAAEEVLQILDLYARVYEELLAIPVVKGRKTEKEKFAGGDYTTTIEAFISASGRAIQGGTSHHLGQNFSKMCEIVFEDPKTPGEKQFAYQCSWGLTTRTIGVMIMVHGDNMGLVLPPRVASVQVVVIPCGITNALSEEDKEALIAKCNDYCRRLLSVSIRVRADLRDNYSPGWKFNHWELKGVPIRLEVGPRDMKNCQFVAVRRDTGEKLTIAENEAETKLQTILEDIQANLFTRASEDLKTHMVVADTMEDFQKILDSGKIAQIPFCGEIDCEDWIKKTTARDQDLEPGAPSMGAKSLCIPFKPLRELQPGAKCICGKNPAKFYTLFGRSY
Description: FIG. 23D is a graph showing that HF inhibits prolyl tRNA synthetase activity in RRL. ^14C Pro or ^35S Met were incubated with RRL and total bovine tRNA in the presence or absence of HF or MAZ1310, and incorporation of radioactivity into tRNA was measured by liquid scintillation counting. Error bars reflect standard deviation of triplicate determinations. Data are representative of two separate experiments.
The effects of HF on prolyl-tRNA charging was examined. RRL were supplemented with ^14C-Pro or ^35S-Met in the presence or absence of HF, and total tRNA was isolated (FIG. 23D).

[1] = tested on: amino acid starvation response in splenocytes; experiment: In vivo AAR activation in splenocytes of HF-injected mice; design: species or system mouse; settings: i.p. injection, 6 hours
Description: FIG. 20F, left panel, depicts western blot analysis of protein from cells of wild-type mice injected i.p. with vehicle (DMSO) or […] HF. Spleens were harvested 6 hours post injection, red blood cells were removed by NH4Cl lysis buffer and immunoblotting for phosphorylated or total eIF2a was performed on whole cell extracts. FIG. 20F, right panel is a graph depicting levels of AAR-associated gene expression (Asns, Gpt2, eIF4Ebp1) analyzed by quantitative real-time PCR using cDNA from splenocytes of mice treated with DMSO or HF as above. Expression of AAR-associated transcripts were normalized to Hprt levels and data are presented as mean relative expression from duplicate samples ±SD. All data represent 2-3 similar experiments.

SMILES: O=C(CC1NCCCC1O)Cn1cnc2cc(Br)c(Cl)cc2c1=O (racemic) [HF, halofuginone]
- signaling downstream of mTOR (mTOR pathway): does not directly inhibit downstream targets of the mTOR pathway; also recorded: did not inhibit signaling downstream of mTOR; also recorded: without concomitant inhibition of mTOR signaling
- incorporation of 14C-Pro into tRNA (prolyl tRNA synthetase): inhibited
- eIF2α phosphorylation and AAR-associated transcripts in splenocytes ex vivo [1]: increased eIF2α phosphorylation and expression of AAR-associated transcripts
